Test system: P. aeruginosa biofilms
Test: Antimicrobial susceptibility of biofilms grown in rotating disk reactor (viable cell counts)
Type: cell-based
Conditions: control biofilms grown without conalbumin, FIG. 5
Method: P. aeruginosa biofilms for susceptibility tests were grown in a rotating disk reactor. Fe-unsaturated conalbumin (Sigma Chemical Co.) was added to standard biofilm medium at indicated concentrations for the duration of biofilm growth. Discs and attached bacteria were then washed 3 times in distilled water, and treated for 4 h in 1 ml of H2O2 (Fisher Scientific) or tobramycin (Eli Lilly, Indianapolis, Ind.) at indicated concentrations. The treated discs were washed 3 times, and bacteria were removed and dispersed in 2 ml sterile PBS by homogenization (Brinkman Homogenizer, model 10/35). Viable cell numbers were enumerated by plate counting.

| Compound | effect on viability of control biofilms (1000 μg/ml tobramycin, 4 h of treatment) | effect on viability of control biofilms (500 mM H2O2, 4 h of treatment) |
| --- | --- | --- |
| NC[C@H]1O[C@H](O[C@H]2[C@H](O)[C@@H](O[C@H]3O[C@H](CO)[C@@H](O)[C@H](N)[C@H]3O)[C@H](N)C[C@@H]2N)[C@H](N)C[C@@H]1O [tobramycin, reference compound] | minimal effects on viability | – |
| OO [H2O2, reference compound] | – | minimal effects on viability |

Source: patent US8343911B2, “Methods of inhibiting and treating bacterial biofilms by metal chelators” (University of Iowa Research Foundation, priority 2002, dated 2013)
